The values that follow come from ChEMBL document CHEMBL2177056, “Bis(arylvinyl)pyrazines, -pyrimidines, and -pyridazines as imaging agents for tau fibrils and β-amyloid plaques in Alzheimer's disease models” (J Med Chem, 2012).

The source made the active and inactive calls. The calls are words filed in the database; no cut-off is given here.

Data set [1] addresses T1, Microtubule-associated protein tau (Homo sapiens, UniProt P10636). The data set is described as follows: Displacement of thiazene red from tau aggregate.
The nature of data set [2]: Displacement of thiazene red from amyloid beta (1 to 40) aggregate.
Data set [3] concerns the target T1, Microtubule-associated protein tau. The data set is described as follows: Binding affinity to extracellular tau plaques in Alzheimer patient brain by fluorescence microscopic analysis.
For data set [4] the target is unchanged. The data set is described as follows: Binding affinity to intracellular fibrillar tau in Alzheimer patient brain by fluorescence microscopic analysis. In kind it is cell-based.
The next data set concerns HepG2. The data set is described as follows: Cytotoxicity against human HepG2 cells. In kind it is cell-based.
The test system of a further data set is Mus musculus. Briefly: Binding affinity to amyloid beta plaque in transgenic mouse brain overexpressing APP Swedish mutant/PS1deltaE9 at 2 mg/kg, ip after 4 hrs by fluorescence microscopic analysis. In kind it is functional, organism-based. Details: dose 2 mg/kg.
Data set [5] can be described thus: Displacement of methoxy-XO4 from amyloid beta (1 to 40) aggregate.
The target in data set [6] is T1, Microtubule-associated protein tau. The data set is described as follows: Binding affinity to tau aggregate in Alzheimer patient bowmans gland of olfactory epithelium.
A short description of data set [7]: Selectivity ratio of IC50 for tau aggregate to IC50 for amyloid beta (1 to 40) aggregate.
The target of data set [8] is Amyloid-beta precursor protein (Homo sapiens) (UniProt P05067). The data set is described as follows: Binding affinity to intravascular amyloid beta angiopathies in Alzheimer patient brain by fluorescence microscopic analysis.
Data set [9] shares this target. Briefly: Binding affinity to extracellular amyloid beta plaques in Alzheimer patient brain by fluorescence microscopic analysis.
Data set [10] in a line: Lipophilicity, log P of the compound. It counts as physicochemical. To be noted: octanol/water.
A short description of data set [11]: Selectivity ratio of IC50 for amyloid beta (1 to 40) aggregate to IC50 for tau aggregate.

T1 sequence (P10636 whole entry): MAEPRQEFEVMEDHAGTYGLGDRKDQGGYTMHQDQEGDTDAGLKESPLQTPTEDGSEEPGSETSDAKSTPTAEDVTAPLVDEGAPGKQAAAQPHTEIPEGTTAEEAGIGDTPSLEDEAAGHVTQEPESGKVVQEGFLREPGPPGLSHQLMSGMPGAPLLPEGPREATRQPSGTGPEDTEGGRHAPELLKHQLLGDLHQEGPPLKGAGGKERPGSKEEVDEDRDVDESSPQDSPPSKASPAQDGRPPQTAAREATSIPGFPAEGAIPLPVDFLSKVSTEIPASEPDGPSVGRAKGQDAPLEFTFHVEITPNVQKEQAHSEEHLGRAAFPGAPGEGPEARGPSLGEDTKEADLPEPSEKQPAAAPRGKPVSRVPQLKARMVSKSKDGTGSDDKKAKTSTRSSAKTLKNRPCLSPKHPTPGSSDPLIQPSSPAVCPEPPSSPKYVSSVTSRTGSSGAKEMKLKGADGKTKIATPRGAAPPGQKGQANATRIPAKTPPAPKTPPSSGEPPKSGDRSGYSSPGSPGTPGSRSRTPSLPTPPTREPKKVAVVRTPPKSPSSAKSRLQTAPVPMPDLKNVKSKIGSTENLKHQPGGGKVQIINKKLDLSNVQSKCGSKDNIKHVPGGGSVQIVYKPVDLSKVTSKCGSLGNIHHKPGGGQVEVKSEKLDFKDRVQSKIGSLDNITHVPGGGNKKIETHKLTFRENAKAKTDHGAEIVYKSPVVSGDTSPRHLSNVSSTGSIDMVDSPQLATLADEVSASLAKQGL
Amyloid-beta precursor protein (Homo sapiens), sequence (P05067 whole entry): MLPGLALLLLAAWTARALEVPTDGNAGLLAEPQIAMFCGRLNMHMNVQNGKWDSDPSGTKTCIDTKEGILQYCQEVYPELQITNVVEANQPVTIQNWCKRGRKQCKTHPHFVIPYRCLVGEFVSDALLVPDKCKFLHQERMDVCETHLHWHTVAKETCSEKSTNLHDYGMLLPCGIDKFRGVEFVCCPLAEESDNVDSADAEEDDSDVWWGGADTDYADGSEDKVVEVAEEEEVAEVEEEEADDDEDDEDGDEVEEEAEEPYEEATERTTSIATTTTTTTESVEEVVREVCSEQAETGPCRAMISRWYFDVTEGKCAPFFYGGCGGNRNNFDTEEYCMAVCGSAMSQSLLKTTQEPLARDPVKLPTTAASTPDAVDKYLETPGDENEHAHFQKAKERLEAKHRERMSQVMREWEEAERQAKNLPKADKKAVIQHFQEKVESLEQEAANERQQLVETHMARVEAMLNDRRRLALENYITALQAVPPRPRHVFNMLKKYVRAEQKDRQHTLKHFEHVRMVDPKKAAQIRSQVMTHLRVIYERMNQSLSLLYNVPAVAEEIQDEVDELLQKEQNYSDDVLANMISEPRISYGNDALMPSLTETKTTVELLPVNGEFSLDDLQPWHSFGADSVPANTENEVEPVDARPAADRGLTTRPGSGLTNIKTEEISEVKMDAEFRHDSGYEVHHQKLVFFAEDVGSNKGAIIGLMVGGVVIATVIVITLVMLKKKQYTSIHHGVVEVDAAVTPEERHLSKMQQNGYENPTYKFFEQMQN

As to `CN1CCN(c2ccc(/C=C/c3cnc(/C=C/c4ccc(N5CCN(C)CC5)cc4)cn3)cc2)CC1`, the IC50 is 42 nM in data set [1] (read-out: IC50) and 51 nM in data set [2] (read-out: IC50). In addition, the outcome in [3] and in data set [4] was Active.

Turning to `CN(C)c1ccc(/C=C/c2cc(-c3ccccc3F)c(/C=C/c3ccc(N(C)C)cc3)nn2)cc1`, the IC50 in data set [1] (read-out: IC50) came out at 1250 nM; in data set [2] (read-out: IC50) it was 10100 nM. Further, the result in [3] and in [4] was Active.

For the compound `C(=C\c1cc(/C=C/c2ccc(N3CCCC3)cc2)ncn1)/c1ccc(N2CCCC2)cc1`, in the data set with HepG2, the Activity result is “Non-toxic”. For the same compound, the result in the data set with Mus musculus was inactive. Besides, the figures for the IC50 in [1] (read-out: IC50) and in [2] (read-out: IC50) were 2 nM and 52 nM, respectively. The result in [3] and in data set [4] was Active.

Regarding `C(=C\c1cc(/C=C/c2ccc(N3CCCCC3)cc2)ncn1)/c1ccc(N2CCCCC2)cc1`, the IC50 worked out at 17 nM in data set [1] (read-out: IC50) and 156 nM in data set [2] (read-out: IC50). Besides, the outcome in data set [3] and in [4] was Active.

Take `C(=C\c1cnc(/C=C/c2ccc(N3CCOCC3)cc2)cn1)/c1ccc(N2CCOCC2)cc1`: the IC50 in data set [1] (read-out: IC50) came out at 6 nM; in data set [2] (read-out: IC50), 43 nM. In addition, the outcome in data set [3] and in data set [4] was Active.

Consider `Cn1cccc1/C=C/c1cnc(/C=C/c2cccn2C)cn1`, for which the outcome in [3] and in data set [4] was Active.

Consider `C(=C\c1cnc(/C=C/c2ccc(N3CCCC3)cc2)cn1)/c1ccc(N2CCCC2)cc1`, for which the result in data set [3] and in data set [4] was Active.

`CC(C)c1ccc(/C=C/c2cnc(/C=C/c3ccc(C(C)C)cc3)cn2)cc1`: the IC50 entry in [1] and in data set [2] was “Not Active” in each case. For the same compound, the outcome in [3] and in data set [4] was Active.

In the case of `COc1ccc(-c2cc(/C=C/c3ccc(N(C)C)cc3)nnc2/C=C/c2ccc(N(C)C)cc2)cc1`, the figures for the IC50 in data set [1] (read-out: IC50) and in data set [2] (read-out: IC50) were 1590 nM and 4570 nM, respectively. The result in data set [3] and in [4] was Active.

In data set [5], `[11CH3]Oc1cc(/C=C/c2ccc(O)cc2)ccc1/C=C/c1ccc(O)cc1` had a Ki of 26.8 nM. That is a double-digit nanomolar value.

On to `CN(C)c1ccc(/C=C/c2cc(/C=C/c3ccc(N(C)C)cc3)ncn2)cc1`, for which the result (in data set [6]; with Mus musculus; in data set [3]; in data set [4]) was Active. The Activity result with HepG2 is recorded as “Non-toxic”. In addition, the Ratio IC50 in data set [7] is 13.5. For the same compound, the IC50 in [1] (read-out: IC50) is 4 nM; in [2] (read-out: IC50) it was 54 nM.

Turning to `C(=C\c1cc(-c2ccccc2)c(/C=C/c2ccc(N3CCOCC3)cc2)nn1)/c1ccc(N2CCOCC2)cc1`, the IC50 in data set [1] (read-out: IC50) was 4710 nM; in [2] (read-out: IC50), 7590 nM. Moreover, the outcome in data set [3] and in data set [4] was Active.

Regarding `CN(C)c1ccc(/C=C/c2cc(-c3ccccc3)c(/C=C/c3ccc(N(C)C)cc3)nn2)cc1`, the IC50 entry in data set [1] and in [2] was “Not Active” in each case. The result in data set [3] and in [4] was Active.

On to `CN(C)c1ccc(/C=C/c2cnc(/C=C/c3ccc(N(C)C)cc3)cn2)cc1`, for which the outcome (in the data set with Mus musculus; in data set [8]; in [9]; in [3]; in data set [4]) was Active.

Consider `CN1CCN(c2ccc(/C=C/c3cc(/C=C/c4ccc(N5CCN(C)CC5)cc4)ncn3)cc2)CC1`, for which the IC50 is 7470 nM in [1] (read-out: IC50) and 2380 nM in data set [2] (read-out: IC50). The result in [3] and in [4] was Active.

In the case of `COc1cc(/C=C/c2ccc(O)cc2)ccc1/C=C/c1ccc(O)cc1`, the logP in data set [10] came to 2.6. The Ratio IC50 in [11] amounted to 1.8. In addition, the IC50 in data set [1] (read-out: IC50) was 246 nM; in data set [2] (read-out: IC50), 140 nM.

For `Cn1cccc1/C=C/c1cc(-c2ccccc2)c(/C=C/c2cccn2C)nn1`, the IC50 result in [1] and in data set [2] was “Not Active” throughout. The result in [3] and in data set [4] was Active.

As for `CN(C)c1ccc(/C=C/C=C/c2cc(/C=C/C=C/c3ccc(N(C)C)cc3)ncn2)cc1`, the values for the IC50 in data set [1] (read-out: IC50) and in data set [2] (read-out: IC50) were 2 nM and 3 nM, respectively. Besides, the outcome in data set [3] and in data set [4] was Active.

As to `C(=C\c1cnc(/C=C/c2ccc(N3CCCCC3)cc2)cn1)/c1ccc(N2CCCCC2)cc1`, the outcome in [3] and in [4] was Active.

With `C(=C\c1cc(/C=C/c2ccc(N3CCOCC3)cc2)ncn1)/c1ccc(N2CCOCC2)cc1`, the IC50 entry in data set [1] and in [2] was “Not Active” in each case. For the same compound, the result in data set [3] and in data set [4] was Active.

For the compound `COc1ccc(/C=C/c2cnc(/C=C/c3ccc(OC)cc3)cn2)cc1`, the IC50 in [1] (read-out: IC50) turned out to be 13 nM; in data set [2] (read-out: IC50), 17 nM. The outcome in [3] and in data set [4] was Active.
